Patent publication US9416138B2, “Benzyl sulfonamide compounds useful as MoGAT-2 inhibitors” (Eli Lilly and Company, priority 2012, dated 2016)
Where a name gives a salt, the structure may show the parent alone.

Legend:
human MoGAT-2 [1] = biological target: T1, human MoGAT-2 (Homo sapiens, UniProt Q3SYC2); experiment: Inhibitory Activity in MOGAT-2 Cell Assay (Caco-2 cells stably transfected with human MoGAT-2, HDG substrate, LC-MS); type: cell-based; set-up: expressed in transfected cells; settings: Caco-2 cells expressing human MoGAT-2; 4 hours treatment with HDG/DOPC; read-out: C50 nM (Std Dev.; n*)
T1 sequence (Q3SYC2 whole entry): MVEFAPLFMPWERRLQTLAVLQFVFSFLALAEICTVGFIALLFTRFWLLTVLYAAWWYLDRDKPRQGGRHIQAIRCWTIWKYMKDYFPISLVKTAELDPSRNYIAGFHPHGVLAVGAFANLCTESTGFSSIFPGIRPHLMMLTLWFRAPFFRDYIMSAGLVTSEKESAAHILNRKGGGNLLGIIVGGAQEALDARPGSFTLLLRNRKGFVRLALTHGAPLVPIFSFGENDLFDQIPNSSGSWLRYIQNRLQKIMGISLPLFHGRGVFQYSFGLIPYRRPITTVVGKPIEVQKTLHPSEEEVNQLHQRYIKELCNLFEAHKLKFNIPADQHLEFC
Experimental: The inhibitory activity of compounds against human MoGAT-2 in a cell environment is evaluated in this assay. Caco-2 is a human colon carcinoma cell line and is often used as a model for intestinal epithelial cells. […] The substrate is delivered to cells using as a mixture with DOPC in the form of sonicated vesicles. Seed the Caco2 cells onto 100 mm dishes to be 80% confluent after 24 hours in complete media (3/1 DMEM: F12+10% FBS+20 mM HEPES+gentamicin). Transfect the cells with hMoGAT-2 plasmid (MOGAT-2-pCDNA3.1-Hygro) using Lipofectamine 2000 (Invitrogen). After a 6 hour exposure to the transfection mixture, wash the cells three times in PBS and then add media. Incubate the cells for an additional 18 hours incubation, trypsinize the cells and serially dilute them into 100 mm dishes. Add complete media+400 μg/ml hygromycin and incubate until clones appear. Isolate and transfer the clones into 24 well dishes and grow to confluency. Prepare the RNAs from these clones using a Qiagen RNAeasy kit. Perform Taqman analysis using an ABI inventoried assay (HS00228262) on a 7900 Sequence Detection System (ABI). Analyze the lysates from these clones by Western blot analysis using a goat polyclonal antibody (Santa Cruz, SC-32392 to confirm human MoGAT-2 expression of a 38 kD protein corresponding to MoGAT-2. […] Add 20 ml of buffer (150 mM Tris-Cl pH 7.4, 250 mM sucrose, 1 mM EDTA) to the dried HDG/DOPC mixture while sonicating until the solution becomes clear. Plate the Caco2 cells into a poly-D-lysine coated 96-well plate (the “Cell Plate”) at 37° C., 5% CO2 overnight. […] Trypsinize the cells with 50 μl of trypsin solution and add 50 μl of PBS. Immediately freeze the cells on dry ice and store at -20° C. for LC-MS analysis. Extract the cells with chloroform/methanol as follows: transfer the cells to a 2 ml plate; wash the cell plate with 200 μL methanol and then transfer the methanol wash to the 2 ml plate; wash the cell plate again with 200 μL PBS and transfer the PBS wash to the 2 ml plate. Add chloroform (400 μL) with an internal standard (19.52 ng/mL) DAG (15:0,15:0 (Sigma)), D5-TAG (39.03 ng/mL) CDN (16,16,16) to the 2 mL Plate. Turn the sealed 2 mL Plate up and down (10×), then vortex and spin. Remove 400 μL of the lower layer from the 2 mL plate and add to the wells of another plate the “Final Plate”. Add CHCl3:MeOH (400 μL 2:1) to the 2 mL Plate. Again turn the sealed 2 mL Plate up and down (10×), vortex and spin. Remove 220 μL of the lower layer from the 2 mL Plate and add to the Final Plate. Dry the Final Plate and reconstitute with […] of IPA. […] Monitor the channels to collect data for the D5 C16 TAG internal standard as well as the ether TAG, and […] and […] natural TAGs. Solvent A is 80/20 H2O/Methanol with 20 μM ammonium acetate. Solvent B is 50/50 IPA/THF with 20 μM ammonium acetate. Flow rate is 0.4 mL/min Wash solvents are H2O/MeOH and DCM. Using Xcalibur software extract the areas of the peaks of interest, and export the data to Excel which uses the following formula: (area of ether TAG/area of […] natural TAG)/Area of IS. This ratio effectively accounts for variance of cell number in each well.

human MoGAT-2 [2] = biological target: T1, human MoGAT-2; experiment: MOGAT-2 Inhibitory Assay (SF9 cell lysate, 14C-oleoyl-CoA, Microscint E extraction); type: biochemical; set-up: made in house; host or cells: insect SF9 cells (cell lysate supernatant); settings: human MoGAT-2 expressed in SF9 cells, cell extract; 90 minutes at room temperature
Experimental: The in vitro inhibitory activity of compounds against human MoGAT-2 is evaluated in this assay. MoGAT-2 transfers an oleoyl group to monooleoyl-glycerol (“MAG”) from oleoyl-CoA to form dioleoyl-glycerol (“DAG”) in the intestinal triglyceride resynthesis pathway. The assay takes advantage of Microscint E extraction, which extracts hydrophobic molecules selectively over hydrophilic ones to separate the ^14C-oleoyl-CoA from ^14C-DAG.
Genetically engineered insect SF9 cells express human MoGAT-2. Prepare the cell lysate in 20 mM of NaCl with protease inhibitor (Roche Cat#11873580001). Homogenize the SF9 cells expressing human MoGAT-2 at 15,000 rpm for 20×2 seconds (PT-3100 Polytrone). Centrifuge the homogenate at 1000 g for 10 minutes at 4° C. Collect the supernatant into a separate tube for protein quantification and activity testing. Purify the glycerol monooleate substrate (Spectrum Chemical, CAS#25496-72-4) chromatographically. Prepare the monoacylglyerol (MAG) substrate in phospholipid vescicles (dioleoyl phosphatidylcholine “DOPC”). Prepare the MAG/DOPC vesicles at 20 mM concentration of total lipids (MAG and DOPC). Prepare different molar ratios of MAG to total lipids for either compound screening (8.9%) or compound kinetic studies (2.6-40%). Mix the appropriate amount of purified MAG and DOPC (Avanti Polar Lipids #850375C) in chloroform in a glass tube. […]

[3] = system: oil bolus-induced excursion of triglycerides in circulation; experiment: Dog Oil Bolus Model; type: in vivo, dog (male beagles); settings: 10 mg/kg dose, olive oil bolus, plasma net TAG AUC, statistically significant (p<0.05)
From the text: Inhibiting MoGAT-2 found in the small intestine may be useful for treating hypertriglyceridemia caused by excessive fat intake Inhibition of MoGAT-2 disrupts resynthesis of triglycerides, which reduces secretion of triglycerides from the intestine. Therefore, MoGAT-2 inhibition interferes with a specific process that leads to eventual secretion of triglycerides into the intestine for eventual circulation through the body. To assess the ability of one or more of the exemplified compounds to inhibit MoGAT-2 induced TAG secretion into the intestine as measured in the blood system, the following protocol can be followed:
Twenty one male beagles are enrolled for each study, each dog selected to have a body weight between 9-13 kg. […]
The analyte is the [M+NH4]+ ion of TAG 18:1 18:1 18:1, which has a mass of 902.8 m/z; the internal standard is D5 TAG 16:0 16:0 16:0, which has a mass of 829.8 m/z. […] The percent inhibition of plasma triglyceride is calculated as follows: the (oil bolus group mean of net TAG AUC−oil bolus group mean of net TAG AUC with compound treatment/oil bolus group mean of net TAG AUC)*100. […] The ability of exemplified compounds of the present invention to inhibit MoGAT-2 activity and reduce TAG absorption in vivo can be further evaluated according to this assay.

| IC50 (human MoGAT-2 [1]) [nM] | SMILES | further results |
| --- | --- | --- |
| 479 | C[C@@H](NS(C)(=O)=O)c1ccc(CNCC2COc3ccccc3N2)cc1 (single isomer, unassigned; isomer 2) [Example 14] | – |
| 105 | C[C@@H](NS(C)(=O)=O)c1ccc(CNC2CCN(c3ccccc3)C2)cc1 (single isomer, unassigned; isomer 2) [Example 19] | – |
| 294 | C[C@@H](NS(C)(=O)=O)c1ccc(CNCC2COC(c3ccccc3)CO2)cc1 (single isomer, unassigned; isomer 2) [Example 29] | – |
| 3.8 | CS(=O)(=O)N[C@@H](c1ccc(CNC[C@H]2COc3cccnc3O2)cc1)C(F)(F)F [Example 1, N-{(1S)-1-[4-({[(3S)-2,3-Dihydro[1,4]dioxino[2,3-b]pyridin-3-ylmethyl]amino}methyl)phenyl]-2,2,2-trifluoroethyl}methanesulfonamide hydrochloride] | IC50 (human MoGAT-2 [2]): 2.28 nM |
| – | C[C@@H](NS(C)(=O)=O)c1ccc(CNC[C@H]2COc3cccnc3O2)cc1.Cl [Example 2, N-{(1R)-1-[4-({[(3S)-2,3-Dihydro[1,4]dioxino[2,3-b]pyridin-3-ylmethyl]amino}methyl)phenyl]ethyl}methanesulfonamide hydrochloride] | reduction in TAG 18.1_18.1_18.1 [3]: 67%; reduction in total triglycerides [3]: 77% |
| 266 | CS(=O)(=O)N[C@@H](c1ccc(CNCCN2CCc3ccccc3C2=O)cc1)C(F)(F)F [Example 31, N-{(1S)-2,2,2-Trifluoro-1-[4-({[2-(1-oxo-3,4-dihydroisoquinolin-2(1H)-yl)ethyl]amino}methyl)phenyl]ethyl}methanesulfonamide hydrochloride] | – |
